Laboratory results as given in US20120101100A1 (priority 2008, published 2012).
Structures can show the parent of a compound that is named as a salt.

Biological target: S. aureus GyrB ATPase (Staphylococcus aureus, UniProt P0A0K8)
Experiment: S. aureus (SAU) GyrB ATPase inhibition, malachite green phosphate detection (E. coli GyrA + S. aureus GyrB)
Format: biochemical
Conditions: compound concentration of 1.0 μM unless otherwise noted; average value where assay was carried out more than once; read-out: S. aureus (SAU) GyrB ATPase % Inhibition
Experimental: Compounds were tested for inhibition of GyrB ATPase activity using an ammonium molybdate/malachite green-based phosphate detection assay (Lanzetta, P. A., L. J. Alvarez, P. S. Reinach, and O. A. Candia, 1979, 100: 95-97). Assays were performed in multiwell plates in 100 μl reactions containing: 50 mM Hepes buffer pH 7.5, 75 mM ammonium acetate, 8.0 mM magnesium chloride, 1.0 mM ethylenediaminetetraacetic acid, 5% glycerol, 2 mM 1,4-Dithio-DL-threitol, 400 nM bovine serum albumin, 5 μg/ml sheared salmon sperm DNA, 1.25 nM E. coli GyrA, 1.25 nM S. aureus GyrB, 500 μM ATP, and compound in dimethylsulfoxide. Reactions were quenched with 150 μl of ammonium molybdate/malachite green detection reagent containing 1.2 mM malachite green hydrochloride, 8.5 mM ammonium molybdate tetrahydrate, and 1 M hydrochloric acid. Plates were read in an absorbance plate reader at 650 nm and percent inhibition values were calculated using dimethylsulfoxide (2%)-containing reactions as 0% inhibition and novobiocin-containing (2 μM) reactions as 100% inhibition controls. Compound potency was based on IC50 measurements determined from reactions performed in the presence of 10 different compound concentrations.

Chain of S. aureus GyrB ATPase (P0A0K8 whole entry): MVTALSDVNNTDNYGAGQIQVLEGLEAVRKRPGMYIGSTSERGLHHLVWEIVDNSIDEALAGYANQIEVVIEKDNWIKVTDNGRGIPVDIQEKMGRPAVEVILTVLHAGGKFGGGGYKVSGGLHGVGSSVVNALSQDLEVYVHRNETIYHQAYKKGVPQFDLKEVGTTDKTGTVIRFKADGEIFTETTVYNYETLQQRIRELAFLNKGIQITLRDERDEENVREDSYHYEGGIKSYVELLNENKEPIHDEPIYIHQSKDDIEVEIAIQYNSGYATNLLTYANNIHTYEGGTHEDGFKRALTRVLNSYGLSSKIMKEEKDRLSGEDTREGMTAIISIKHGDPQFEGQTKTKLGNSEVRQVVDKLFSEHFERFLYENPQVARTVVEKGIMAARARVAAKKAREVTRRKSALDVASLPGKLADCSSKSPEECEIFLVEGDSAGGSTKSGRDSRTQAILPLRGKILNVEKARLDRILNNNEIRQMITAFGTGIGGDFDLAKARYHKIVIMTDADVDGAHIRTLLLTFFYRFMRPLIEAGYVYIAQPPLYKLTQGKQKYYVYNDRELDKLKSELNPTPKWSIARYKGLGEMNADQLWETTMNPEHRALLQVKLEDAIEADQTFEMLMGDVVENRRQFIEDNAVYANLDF
Chain of S. aureus GyrB ATPase (P0AES4 whole entry, further chain): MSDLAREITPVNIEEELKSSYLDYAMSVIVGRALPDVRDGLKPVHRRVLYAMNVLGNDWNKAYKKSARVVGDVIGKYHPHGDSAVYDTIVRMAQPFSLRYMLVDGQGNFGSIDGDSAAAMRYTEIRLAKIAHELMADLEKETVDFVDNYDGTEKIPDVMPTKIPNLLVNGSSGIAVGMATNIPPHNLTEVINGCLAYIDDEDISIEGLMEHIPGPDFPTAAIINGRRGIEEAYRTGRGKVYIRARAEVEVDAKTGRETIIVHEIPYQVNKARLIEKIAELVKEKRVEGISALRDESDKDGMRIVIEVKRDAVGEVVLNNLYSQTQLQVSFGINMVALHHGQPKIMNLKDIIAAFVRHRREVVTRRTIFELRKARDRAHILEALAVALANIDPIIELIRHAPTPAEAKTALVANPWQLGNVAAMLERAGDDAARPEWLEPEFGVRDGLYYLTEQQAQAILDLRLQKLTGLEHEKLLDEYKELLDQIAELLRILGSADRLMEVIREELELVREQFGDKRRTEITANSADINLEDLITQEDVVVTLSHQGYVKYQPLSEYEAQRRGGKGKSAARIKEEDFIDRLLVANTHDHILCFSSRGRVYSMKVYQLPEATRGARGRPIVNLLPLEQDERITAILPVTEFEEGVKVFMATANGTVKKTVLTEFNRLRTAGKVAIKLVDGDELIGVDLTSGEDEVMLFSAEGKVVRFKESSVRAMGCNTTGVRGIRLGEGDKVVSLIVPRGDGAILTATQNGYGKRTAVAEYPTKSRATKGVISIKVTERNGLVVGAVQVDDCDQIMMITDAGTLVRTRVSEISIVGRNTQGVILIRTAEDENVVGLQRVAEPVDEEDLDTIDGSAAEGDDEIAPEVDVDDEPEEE

| Structure (SMILES) | inhibition at 1 µM [%] |
| --- | --- |
| CCNC(=O)Nc1cc(-c2nc(-c3ccccc3)cs2)c(-c2ccnc(-c3nnc(C)o3)c2)cn1 [Example 96, 1-ethyl-3-(2′-(5-methyl-1,3,4-oxadiazol-2-yl)-4-(4-phenylthiazol-2-yl)-3,4′-bipyridin-6-yl)urea] | 100 |
| CCNC(=O)Nc1cc(-c2nc(C(F)(F)F)cs2)c(-c2cncc(-c3nnc([C@@H](N)C4CCCCC4)o3)c2)cn1 [Example 238, (S)-1-(5′-(5-(amino(cyclohexyl)methyl)-1,3,4-oxadiazol-2-yl)-4-(4-(trifluoromethyl)thiazol-2-yl)-3,3′-bipyridin-6-yl)-3-ethylurea] | 96 |
| CCNC(=O)Nc1cc(-c2nnc(-c3ccccc3)o2)c(-c2cnc(OC)c(-c3n[nH]c(=O)o3)c2)cn1 [Example 197] | 106 |
| CCNC(=O)Nc1cc(-c2nc(-c3ccccc3)cs2)c(-c2nc(-c3ncnn3C)c(-c3nnc(C)o3)s2)cn1 [Example 97, 1-ethyl-3-(5-(5-(5-methyl-1,3,4-oxadiazol-2-yl)-4-(1-methyl-1H-1,2,4-triazol-5-yl)thiazol-2-yl)-4-(4-phenylthiazol-2-yl)pyridin-2-yl)urea] | 99 |
| CCNC(=O)Nc1cc(-c2nc(C(F)(F)F)cs2)c(-c2ccc(F)nc2)cn1 [Example 127] | 100 |
| CCNC(=O)Nc1cc(-c2nc(-c3ccccc3)cs2)c(-c2ccc[n+]([O-])c2)cn1 [Example 130] | 103 |
| CCNC(=O)Nc1cc(-c2cc(C(F)(F)F)nn2C)c(-c2cncc(-c3n[nH]c(=O)o3)c2)cn1 [Example 146] | 97 |
| CCNC(=O)Nc1cc(-c2nc(C(F)(F)F)cs2)c(-c2cncc(-c3nn(C(C)=O)c(=O)o3)c2)cn1 [Example 161] | 97 |
| CCNC(=O)Nc1cc(-c2nc(C(F)(F)F)cs2)c(-c2cncc(-c3nc(C)no3)c2)cn1 [Example 8] | 95 |
| CCNC(=O)Nc1cc(-c2nc(C3CCCC3)cs2)c(-c2cncc(-c3nnc(C)o3)c2)cn1 [Example 235, 1-(4-(4-cyclopentylthiazol-2-yl)-5′-(5-methyl-1,3,4-oxadiazol-2-yl)-3,3′-bipyridin-6-yl)-3-ethylurea] | 101 |
| CCNC(=O)Nc1cc(-c2nc(C(F)(F)F)cs2)c(-c2cc(-c3nnc(C)o3)cnc2OC(C)CN(C)C)cn1 (centres unmarked) [Example 114, 1-(2′-(1-(Dimethylamino)propan-2-yloxy)-5′-(5-methyl-1,3,4-oxadiazol-2-yl)-4-(4-(trifluoromethyl)thiazol-2-yl)-3,3′-bipyridin-6-yl)-3-ethylurea] | 97 |
| CCNC(=O)Nc1cc(-c2nc(-c3cnn(C)c3)cs2)c(-c2cncc(S(N)(=O)=O)c2)cn1 [Example 185] | 99 |
| CCNC(=O)Nc1cc(-c2nc(C(F)(F)F)cs2)c(-c2cncc(-c3nnc(N)o3)c2)cn1 [Example 136, 1-(5′-(5-Amino-1,3,4-oxadiazol-2-yl)-4-(4-(trifluoromethyl)thiazol-2-yl)-3,3′-bipyridin-6-yl)-3-ethylurea] | 102 |
| CCNC(=O)Nc1cc(-c2nc(C(F)(F)F)c(C(=O)NCCOC)s2)c(-c2cncc(-c3nnc(C)o3)c2)cn1 [Example 60, 2-(6-(3-ethylureido)-5′-(5-methyl-1,3,4-oxadiazol-2-yl)-3,3′-bipyridin-4-yl)-N-(2-methoxyethyl)-4-(trifluoromethyl)thiazole-5-carboxamide] | 92 |
| CCNC(=O)Nc1cc(-c2nc(C(F)(F)F)cs2)c(-c2ccc(-c3n[nH]c(=O)o3)nn2)cn1 [Example 191] | 99 |
| CCNC(=O)Nc1cc(-c2nc(C(F)(F)F)cs2)c(-c2cncc(-c3nnc(NCCCN(C)C)o3)c2)cn1 [Example 152, 1-(5′-(5-(3-(Dimethylamino)propylamino)-1,3,4-oxadiazol-2-yl)-4-(4-(trifluoromethyl)thiazol-2-yl)-3,3′-bipyridin-6-yl)-3-ethylurea] | 95 |
| CCNC(=O)Nc1cc(-c2nc(C(F)(F)F)cs2)c(-c2c[nH]c(=O)c(-c3nnc(C)o3)c2)cn1 [Example 261, 1-ethyl-3-(5-(5-(5-methyl-1,3,4-oxadiazol-2-yl)-6-oxo-1,6-dihydropyridin-3-yl)-4-(4-(trifluoromethyl)thiazol-2-yl)pyridin-2-yl)urea] | 96 |

| Structure (SMILES) | inhibition at 1 µM [%] |
| --- | --- |
| CCNC(=O)Nc1cc(-c2nc(C(F)(F)F)cs2)c(-c2cc(-c3n[nH]c(=O)o3)cnc2OC2CCNCC2)cn1 [Example 109, 1-Ethyl-3-{5′-(5-oxo-4,5-dihydro-1,3,4-oxadiazol-2-yl)-2′-(piperidin-4-yloxy)-4-[4-(trifluoromethyl)-1,3-thiazol-2-yl]-3,3′-bipyridin-6-yl}urea] | 98 |
| CCNC(=O)Nc1cc(-c2nc(-c3ccccc3)cs2)c(-c2cc(OC(C)C)nc(-c3nnc(C)o3)c2)cn1 [Example 82, 1-ethyl-3-(2′-isopropoxy-6′-(5-methyl-1,3,4-oxadiazol-2-yl)-4-(4-phenylthiazol-2-yl)-3,4′-bipyridin-6-yl)urea] | 86 |
| CCNC(=O)Nc1cc(-c2nc(C(F)(F)F)cs2)c(-c2cncc(C#N)n2)cn1 [Example 31, 1-(5-(6-cyanopyrazin-2-yl)-4-(4-(trifluoromethyl)thiazol-2-yl)pyridin-2-yl)-3-ethylurea] | 113 |
| CCNC(=O)Nc1cc(-c2nc(C(F)(F)F)cs2)c(-c2cncc(-c3nn(C(=O)N4CCCCC4)c(=O)o3)c2)cn1 [Example 177] | 86 |
| CCNC(=O)Nc1cc(-c2nc(-c3cccc(OC)n3)cs2)c(-c2cncc(-c3n[nH]c(=O)o3)n2)cn1 [Example 262, 1-ethyl-3-(4-(4-(6-methoxypyridin-2-yl)thiazol-2-yl)-5-(6-(5-oxo-4,5-dihydro-1,3,4-oxadiazol-2-yl)pyrazin-2-yl)pyridin-2-yl)urea] | 97 |
| CCCNC(=O)Nc1cc(-c2nc(C(F)(F)F)cs2)c(-c2cc(-c3nnc(C)o3)cnc2OCCN(C)C)cn1 [Example 167] | 96 |
| CCNC(=O)Nc1cc(-c2nc(-c3ccccc3)cs2)c(-c2cc(OC(C)C)nc(-c3n[nH]c(=O)o3)c2)cn1 [Example 81, 1-ethyl-3-(2′-isopropoxy-6′-(5-oxo-4,5-dihydro-1,3,4-oxadiazol-2-yl)-4-(4-phenylthiazol-2-yl)-3,4′-bipyridin-6-yl)urea] | 94 |
| CCNC(=O)Nc1cc(-c2nc(C(F)(F)F)cs2)c(-c2cc(-c3n[nH]c(=O)o3)cnc2OC2CC(C)(C)N(C)C(C)(C)C2)cn1 [Example 218] | 99 |
| CCNC(=O)Nc1cc(-c2nc(C(F)(F)F)c(CNC3CCCCC3)s2)c(-c2cncc(-c3n[nH]c(=O)o3)c2)cn1 [Example 52, 1-(4-(5-((cyclohexylamino)methyl)-4-(trifluoromethyl)thiazol-2-yl)-5′-(5-hydroxy-1,3,4-oxadiazol-2-yl)-3,3′-bipyridin-6-yl)-3-ethylurea hydrochloride] | 108 |
| CCNC(=O)Nc1cc(-c2ccc(N3CCOCC3)cc2)c(-c2cncc(-c3n[nH]c(=O)o3)c2)cn1 [Example 108, 1-Ethyl-3-(4-(4-morpholinophenyl)-5′-(5-oxo-4,5-dihydro-1,3,4-oxadiazol-2-yl)-3,3′-bipyridin-6-yl)urea] | 103 |
| CCNC(=O)Nc1cc(-c2nc(C(F)(F)F)cs2)c(-c2cncc(-c3nnc(CC(C)=O)o3)c2)cn1 [Example 265, 1-ethyl-3-(5′-(5-(2-oxopropyl)-1,3,4-oxadiazol-2-yl)-4-(4-(trifluoromethyl)thiazol-2-yl)-3,3′-bipyridin-6-yl)urea] | 101 |
| CCNC(=O)Nc1cc(-c2nc(C3CCOC(C)(C)C3)cs2)c(-c2cncc(-c3n[nH]c(=O)o3)c2)cn1 (centres unmarked) [Example 212] | 97 |
| CCNC(=O)Nc1cc(-c2nc(C(F)(F)F)cs2)c(-c2cncc(-c3noc(=S)[nH]3)c2)cn1 [Example 18, 1-Ethyl-3-(5′-(5-thioxo-4,5-dihydro-1,2,4-oxadiazol-3-yl)-4-(4-(trifluoromethyl)thiazol-2-yl)-3,3′-bipyridin-6-yl)urea] | 113 |
| CCNC(=O)Nc1cc(-c2nc(C(F)(F)F)cs2)c(-c2cc(-c3n[nH]c(=O)o3)cnc2OC2CCN(C)CC2)cn1 [Example 215] | 96 |
| CCNC(=O)Nc1cc(-c2nc(C(F)(F)F)cs2)c(-c2cc(-c3n[nH]c(=O)o3)cnc2OC2CCN(C(C)C)CC2)cn1 [Example 219] | 97 |
| CCNC(=O)Nc1cc(-c2nc(C(F)(F)F)cs2)c(-c2cncc(-c3n[nH]c(=O)[nH]3)c2)cn1 [Example 135, 1-Ethyl-3-(5′-(5-oxo-4,5-dihydro-1H-1,2,4-triazol-3-yl)-4-(4-(trifluoromethyl)thiazol-2-yl)-3,3′-bipyridin-6-yl)urea] | 101 |
| CCNC(=O)Nc1cc(-c2nc(C(F)(F)F)cs2)c(-c2cc(-c3n[nH]c(=O)o3)nc(N3CCOCC3)c2)cn1 [Example 86, 1-ethyl-3-(2′-morpholino-6′-(5-oxo-4,5-dihydro-1,3,4-oxadiazol-2-yl)-4-(4-(trifluoromethyl)thiazol-2-yl)-3,4′-bipyridin-6-yl)urea] | 97 |

Same assay, conditions: read-out: S. aureus (SAU) GyrB ATPase % Inhibition

| Structure (SMILES) | inhibition at 1 µM [%] |
| --- | --- |
| CCNC(=O)Nc1cc(-c2nc(C(F)(F)F)cs2)c(-c2cncc(-c3noc(=O)[nH]3)c2)cn1 [Example 19, 1-Ethyl-3-(5′-(5-oxo-4,5-dihydro-1,2,4-oxadiazol-3-yl)-4-(4-(trifluoromethyl)thiazol-2-yl)-3,3′-bipyridin-6-yl)urea] | 110 |
